The source of these data is patent publication US20050063969A1, “Assay” (priority 2001, published 2005).

Holding throughout (format): cell-based
The test system of one assay is K562-αvβ5 cells. Description: Adhesion of K562-αvβ5 cells to wells coated with GST-LAPβ3 (amino acids 259-269). The note with it: wells coated with 0.5 μg GST-LAPβ3; 0.5 mM MnCl2; antibodies 1 μg/well; FIG. 4. As for the experimental part:
K562-αvβ5 cells were allowed to attach to wells coated with 0.5 μg of […] (amino acids 259-269) in the presence of 0.5 mM MnCl2. Specific blocking antibodies (1 μg/well) and compounds were added as indicated. Each data point represents the mean±SD of duplicate points, and is representative of at least three identical experiments.
(§1) K562-WT (wild-type), K562-αvβ6, K562-αvβ5 and K562-αvβ3 cells were maintained in 1:1 RPMI 1640, Hepes modification (Gibco): Dulbecco's […] (DMEM), Hepes modification (Sigma) supplemented with L-glutamine (Gibco) and 10% fetal calf serum (FCS). In addition K562-αvβ3, K562-αvβ5, and K562-αvβ6 cells were supplemented with geneticin (G418, Gibco) at 1 mg/ml. All transfected cells were generated by transfecting K562 cells with pCDNA-3 constructs containing individual integrin cDNAs, using lipofectamine plus (Gibco BRL).
(§2) All proteins were coated onto Maxisorp 96-well plates (Nunclon) overnight at 4° C. […] For quantitation cells were visualised by staining with 0.1% crystal violet (Sigma) for 10 minutes then lysed in 0.5% Triton X-100 (Sigma) and read optically at 570 nm in a Wallac Victor plate reader.
(§3) The region of LAPβ3 corresponding to amino acids 259 to 269 (^259HGRGDLGRLKK^269) was expressed as a GST fusion protein and tested for the ability to support adhesion of K562-αvβ3, K562-αvβ5, and K562-αvβ6 cells. […]

A further assay deals with K562-αvβ3 cells. The assay is described as follows: Adhesion of K562-αvβ3 cells to wells coated with GST-LAPβ3 (amino acids 259-269). The note with it: wells coated with 0.5 μg GST-LAPβ3; 2 mM MgCl2; antibodies 1 μg/well; FIG. 2. As for the experimental part: K562-αvβ3 cells were allowed to attach to wells coated with 0.5 μg of GST-LAPβ3 (amino acids 259-269) in the presence of 2 mM MgCl2. Specific blocking antibodies (1 μg/well) and compounds were added as indicated. Each data point represents the mean±SD of duplicate points, and is representative of at least three identical experiments.
as §1, §2, §3

Another assay has as its system K562-αvβ6 cells. Description: Adhesion of K562-αvβ6 cells to wells coated with GST-LAPβ3 (amino acids 259-269). Conditions: wells coated with 0.5 μg GST-LAPβ3; 2 mM MgCl2; antibodies 1 μg/well; FIG. 3. As for the experimental part: K562-αvβ6 cells were allowed to attach to wells coated with 0.5 μg of GST-LAPβ3 (amino-acids 259-269) in the presence of 2 mM MgCl2. Specific blocking antibodies (1 μg/well) and compounds were added as indicated. Each data point represents the mean±SD of duplicate points, and is representative of at least three identical experiments.
as §1, §2, §3

Turning to `CN(Cc1nc2ccccc2[nH]1)C(=O)c1ccc2c(c1)CN(C)C(=O)[C@H](CC(=O)O)N2` [SB223245], the “Inhibition of K562-αvβ5 cell adhesion to GST-LAPβ3 (amino acids 259-269)” value in the assay on K562-αvβ5 cells is “total blockade”. Besides, in the assay with K562-αvβ3 cells, the “Blocking of K562-αvβ3 cell adhesion to GST-LAPβ3 (amino acids 259-269)” value was “blocked”.
As to “Ac—RTDLDSLRT-NH2 (Ac-RTDLDSLRT-NH2) [GW603365A, described in WO 0037487]”, the “Blocking of K562-αvβ6 cell adhesion to GST-LAPβ3 (amino acids 259-269)” value in the assay on K562-αvβ6 cells is “blocked”.
